Laboratory results as given in PubChem BioAssay (NCI).
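Results reflect a 48-hour exposure of cells in 96-well plates to compound at five concentrations. Abbreviation: GI50, concentration required for 50% inhibition of growth. TGI: total growth inhibition.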

Columns and labels:
Test in all cases: DTP human tumour cell line panel, 48 h
HOP-92 NSCLC = system: HOP-92 NSCLC
HT29 colon = system: HT29 colon
LOX IMVI melanoma = system: LOX IMVI melanoma
OVCAR-3 ovarian = system: OVCAR-3 ovarian
OVCAR-4 ovarian = system: OVCAR-4 ovarian
OVCAR-8 ovarian = system: OVCAR-8 ovarian
SF-268 CNS = system: SF-268 CNS
SK-MEL-2 melanoma = system: SK-MEL-2 melanoma
SNB-75 CNS = system: SNB-75 CNS
UO-31 renal = system: UO-31 renal

Structure (SMILES)	GI50 (HOP-92 NSCLC) [µM]	TGI (HOP-92 NSCLC) [µM]	GI50 (HT29 colon) [µM]	TGI (HT29 colon) [µM]	GI50 (LOX IMVI melanoma) [µM]	TGI (LOX IMVI melanoma) [µM]	GI50 (OVCAR-3 ovarian) [µM]	TGI (OVCAR-3 ovarian) [µM]	GI50 (OVCAR-4 ovarian) [µM]	TGI (OVCAR-4 ovarian) [µM]	GI50 (OVCAR-8 ovarian) [µM]	TGI (OVCAR-8 ovarian) [µM]	GI50 (SF-268 CNS) [µM]	TGI (SF-268 CNS) [µM]	GI50 (SK-MEL-2 melanoma) [µM]	TGI (SK-MEL-2 melanoma) [µM]	GI50 (SNB-75 CNS) [µM]	TGI (SNB-75 CNS) [µM]	GI50 (UO-31 renal) [µM]	TGI (UO-31 renal) [µM]
COc1ccc(NC(=O)c2ccc(NC3=C(Cl)C(=O)N(Cc4ccccc4)C3=O)cc2)cc1	3.63	13.8	11.5	90.3	3.06	8.43	2.11	6.12	3.01	8.35	3.84	18.2	31.5	> 100	10.4	56.1	12.9	34.6	2.66	11.3
CCc1cc(C(N)=O)ccc1-n1nc(C(C)C)c2c(-n3cnc(-c4cnn(C)c4)c3)ccnc21	2.3	14.3	0.474	> 100	0.913	5.56	2.37	> 100	6.24	> 100	3.72	> 100	8.76	> 100	4.41	> 100	4.11	> 100	3.25	> 100
O=C1CCC/C=C\C[C@H]2C=C(Cl)C(=O)/C2=C/C[C@H](CCCCC(F)(F)F)OC(=O)CCC/C=C\C[C@H]2C=C(Cl)C(=O)/C2=C/C[C@H](CCCCC(F)(F)F)O1	0.199	0.754	0.241	0.807	0.128	0.268	0.19	0.485	0.24	3.93	0.231	1.09	0.241	1.38	0.329	2.11	1.23	6.24	0.133	0.281
O=C(CC1Sc2ccccc2NC1=O)Nc1cccc(Cl)c1 (stereo not given)	–	86.1	–	> 100	–	48.2	–	86.8	–	> 100	–	75.8	–	> 100	–	> 100	–	> 100	–	82.5
N#Cc1c([N+](=O)[O-])cc(C(F)(F)F)cc1[N+](=O)[O-]	–	4.01	–	9.36	–	6.87	–	30.9	–	5.57	–	4.36	–	27.3	–	39.3	–	20.1	–	33.5
